Read-outs that look alike come from different tables or passages of the source.

The values below come from patent publication US20120329842A1 (priority 2010, published 2012).

Data set [1] concerns the target T1, IMP-1 (Serratia marcescens, UniProt P52699). To be noted: data from ref. 2; cited from earlier work.
In the next data set the target is VIM-1 (Pseudomonas aeruginosa, UniProt A0A0F7KYQ8).
The target in the next data set is GIM-1 (Pseudomonas aeruginosa, UniProt Q704V1). The note with it: data from ref. 2; cited from earlier work.
Sequence of GIM-1 (Q704V1 entry or part of it): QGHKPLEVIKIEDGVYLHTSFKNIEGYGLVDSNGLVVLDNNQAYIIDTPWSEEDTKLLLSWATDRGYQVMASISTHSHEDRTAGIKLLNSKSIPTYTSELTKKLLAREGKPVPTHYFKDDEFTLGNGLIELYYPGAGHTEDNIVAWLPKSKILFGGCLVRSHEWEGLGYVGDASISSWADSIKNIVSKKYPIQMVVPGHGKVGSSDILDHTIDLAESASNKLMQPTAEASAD
In another data set the test system is SPM-1. The note with it: data from ref. 2; cited from earlier work.
Data set [2] has as its system O=C(Cc1cccs1)N[C@@H]1C(=O)N2C(C(=O)O)=C(/C=C/c3ccc([N+](=O)[O-])cc3[N+](=O)[O-])CS[C@H]12. Nature of the data set: purified protein, by the assay type. To be noted: pH 7.5.
Data set [3] has as its target T1, IMP-1. Nature of the data set: biochemical. Further details: species or system Pseudomonas aeruginosa.
For the next data set, the target named is Bla2 (Bacillus anthracis, UniProt Q93T40). Briefly: biochemical. It counts as biochemical.
Sequence of Bla2 (Q93T40 1-256): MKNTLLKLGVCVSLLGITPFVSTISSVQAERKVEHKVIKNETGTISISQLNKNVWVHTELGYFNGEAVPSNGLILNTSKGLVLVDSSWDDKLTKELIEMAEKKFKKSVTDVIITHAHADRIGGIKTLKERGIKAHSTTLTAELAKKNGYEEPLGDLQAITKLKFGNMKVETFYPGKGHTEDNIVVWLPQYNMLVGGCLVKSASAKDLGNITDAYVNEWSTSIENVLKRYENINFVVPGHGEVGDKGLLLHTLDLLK
The target of data set [4] is human matrix metalloproteinase 8 (MMP-8) (Homo sapiens, UniProt P22894). Briefly: Human MMP-8 inhibition, commercial assay kit (Enzo). To be noted: at concentrations up to 100 μM.
Sequence of human matrix metalloproteinase 8 (MMP-8) (P22894 101-467): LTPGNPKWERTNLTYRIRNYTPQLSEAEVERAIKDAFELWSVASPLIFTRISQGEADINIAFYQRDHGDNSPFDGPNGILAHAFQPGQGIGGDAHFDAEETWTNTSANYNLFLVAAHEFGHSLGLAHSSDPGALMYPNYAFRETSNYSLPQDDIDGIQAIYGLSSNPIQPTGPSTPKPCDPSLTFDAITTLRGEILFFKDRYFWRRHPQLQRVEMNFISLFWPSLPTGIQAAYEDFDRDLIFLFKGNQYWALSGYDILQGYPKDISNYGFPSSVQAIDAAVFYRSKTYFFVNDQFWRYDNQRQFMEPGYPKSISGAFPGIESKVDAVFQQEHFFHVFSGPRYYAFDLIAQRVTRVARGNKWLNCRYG
Data set [5] addresses subclass B2 metallo-β-lactamase CphA (Aeromonas hydrophila, UniProt P26918). To be noted: cited from earlier work.
The test system of a further data set is other MBLs. To be noted: cited from earlier work.
In data set [6] the target is T1, IMP-1. The note with it: cited from earlier work.
Data set [7] concerns the target T1, IMP-1. The note with it: ratio of Km values.
Where [8] appears, read: read-out: Km for VIM-1; data from ref. 2; cited from earlier work.
[9] abbreviates: data from ref. 2; read-out: Km for VIM-1; cited from earlier work.

T1 sequence (P52699 19-246 limits assumed): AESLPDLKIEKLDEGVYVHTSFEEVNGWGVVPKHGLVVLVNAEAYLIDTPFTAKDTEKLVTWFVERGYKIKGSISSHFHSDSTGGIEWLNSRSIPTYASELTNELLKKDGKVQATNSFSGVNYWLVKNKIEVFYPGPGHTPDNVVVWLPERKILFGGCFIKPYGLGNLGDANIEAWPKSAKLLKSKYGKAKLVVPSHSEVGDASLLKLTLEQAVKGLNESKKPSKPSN
Sequence of subclass B2 metallo-β-lactamase CphA (P26918 28-254): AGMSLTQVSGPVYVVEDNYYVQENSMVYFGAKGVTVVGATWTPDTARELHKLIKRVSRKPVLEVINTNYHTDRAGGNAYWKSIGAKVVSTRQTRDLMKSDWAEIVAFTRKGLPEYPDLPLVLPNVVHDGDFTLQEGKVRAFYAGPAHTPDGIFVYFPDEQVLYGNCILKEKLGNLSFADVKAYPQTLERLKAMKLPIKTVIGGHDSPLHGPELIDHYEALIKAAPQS

Turning to `CC(=O)OCC1=C(C(=O)O)N2C(=O)[C@@H](NC(=O)Cc3cccs3)[C@H]2SC1` [Cephalothin], the Km was 21 µM at IMP-1 [1], 53 µM on VIM-1 (setting [8]), 16 µM at GIM-1 and 4 µM in the data set with SPM-1.
As to `O=C(Cc1cccs1)N[C@@H]1C(=O)N2C(C(=O)O)=C(/C=C/c3ccc([N+](=O)[O-])cc3[N+](=O)[O-])CS[C@H]12` [Nitrocefin, nitrocefin], the Km on IMP-1 [1] is 27 µM; at VIM-1 (setting [8]) it was 17 µM; on GIM-1 it was 5.8 µM; in the data set on SPM-1, 4 µM.
On to IMP-1 (Serratia marcescens), for which the Km in data set [2] was 25 µM.
`O=C(O)C1CS[C@H](c2ccccc2O)N1` (stereo partly drawn) [Compound 160, (R)-2-(2-hydroxyphenyl)thiazolidine-4-carboxylic acid]: the half-maximal inhibitory concentration (IC50) on IMP-1 [3] (read-out: IMP-1 IC50) is 29.2 µM; on Bla2 (read-out: Bla2 IC50) it was 16 µM.
With `CC(=O)Nc1cccc(C2=N[C@@H](C(=O)O)C(C)(C)S2)c1` [Compound 368, (S)-2-(3-acetamidophenyl)-4,5-dihydro-5,5-dimethyolthiazole-4-carboxylic acid], at IMP-1 [3] (read-out: IMP-1 IC50), the 50% inhibitory concentration (IC50) amounted to 60 µM.
As to `CC1(C)S[C@@H]2[C@H](NC(=O)[C@H](N)c3ccccc3)C(=O)N2[C@H]1C(=O)O` [Ampicillin], the Km on IMP-1 [1] was 200 µM; on VIM-1 (setting [9]) it was 917 µM; on GIM-1, 20 µM; in the data set with SPM-1, 72 µM.
Take `O=c1ccc(-c2ccccc2)cn1O` [Compound 4, 1-hydroxy-5-phenylpyridin-2-one]: on IMP-1 [3], 12 µM corresponded to half-maximal inhibition (IC50) and the inhibitory constant (Ki) is 3 to 19 µM.
On to `C[C@@H](O)[C@H]1C(=O)N2C(C(=O)O)=C(SCCN=CN)C[C@H]12` [Imipenem, imipenem], for which the figures for the Km on VIM-1 (setting [8]) and on GIM-1 were 1.5 µM and 27 µM, respectively.
As to `O=C(O)[C@@H]1CSC(c2ccccc2)=N1` [Compound 1, (R)-4,5-dihydro-2-phenylthiazole-4-carboxylic acid], the “inhibition of human MMP-8” value in [4] is “did not exhibit inhibition”.
Take `Nc1cccc(C2=NC(C(=O)O)CS2)c1` (stereo not drawn) [Compound 362, 2-(3-aminophenyl)-4,5-dihydrothiazole-4-carboxylic acid]: the IC50 at IMP-1 [3] (read-out: IMP-1 IC50) stood at 100 µM; on Bla2 (read-out: Bla2 IC50), 20 µM. Moreover, at Bla2 (read-out: Bla2 KI), the inhibition constant Ki was 15 µM.
Regarding `O=C(O)c1ccccn1` [pyridine-2-carboxylic acid], in [5] (read-out: Ki against CphA), the Ki is 5.7 µM. In addition, the “activity against other MBLs” value in the data set with other MBLs was “little or no activity”. Further, the “inhibitory effect on IMP-1” value at IMP-1 [6] was “only a very weak inhibitory effect”.
`COC(=O)[C@@H]1CSC(CNC(=O)OC(C)(C)C)=N1` [Compound 369, tert-butyl ((R)-4-(methoxycarbonyl)-4,5-dihydrothiazol-2-yl)methylcarbamate]: the 50% inhibitory concentration (IC50) at Bla2 (read-out: Bla2 IC50) turned out to be 110 µM.
As for `O=C(O)c1csc(Cc2ccccc2)n1` [Compound 2, 2-benzylthiazole-4-carboxylic acid], the “inhibition of human MMP-8” value in data set [4] is listed as “did not exhibit inhibition”.
For `CC1(C)SC(c2ccc(Br)cc2)=N[C@H]1C(=O)O` [Compound 365, (S)-2-(4-bromophenyl)-4,5-dihydro-5,5-dimethylthiazole-4-carboxylic acid], the IC50 on IMP-1 [3] (read-out: IMP-1 IC50) worked out at 150 µM.
As to `C[C@@H](O)[C@H]1C(=O)N2C(C(=O)O)=C(S[C@@H]3CN[C@H](C(=O)N(C)C)C3)[C@H](C)[C@H]12` [Meropenem], the results for the Km on VIM-1 (setting [9]), at GIM-1 and with SPM-1 were 48 µM, 2.7 µM and 281 µM, respectively.
In turn, `C[C@H](CS)C(=O)N1CCC[C@H]1C(=O)O` [Captopril, captopril] displayed a concentration for half-maximal inhibition (IC50) against Bla2 of 25 µM.
For `O=C(O)c1cccc(C(=O)O)n1` [pyridine-2,6-dicarboxylic acid], in [5], the “inhibition of CphA activity” value is recorded as “potently inhibit”. In addition, the “inhibitory effect on IMP-1” value on IMP-1 [6] is recorded as “potently inhibit”.
As for `O=C(NCc1ccccc1)c1cccc(O)n1` [Compound 3, N-benzyl-6-hydroxypyridine-2-carboxamide], on IMP-1 [3], the half-inhibitory concentration (IC50) was found to be 13.9 µM and the Ki is 3 to 19 µM.
On to `CC(C)(C)OC(=O)Nc1cccc(C2=NC(C(=O)O)CS2)c1` (stereo not drawn) [Compound 361, 2-[3-(tert-butoxycarbonylamino)phenyl]-4,5-dihydrothiazole-4-carboxylic acid], for which the IC50 at Bla2 (read-out: Bla2 IC50) is 70 µM.
As for penicillin G, at IMP-1 [7], the “fold less tight binding to IMP-1 than imipenem” value is given as roughly 13 ×. Further, the “fold less tight binding to IMP-1 than nitrocefin” value on IMP-1 [7] is roughly 20 ×. The Michaelis constant (Km) at IMP-1 [1] was 520 µM; on VIM-1 (setting [9]), 841 µM; at GIM-1 it was 46 µM; in the data set on SPM-1, 38 µM.

One may read the Km as the concentration of substrate that gives half-maximal velocity. The term IC50 denotes the point on the concentration scale where inhibition reaches its midpoint. For orientation: Ki means the dissociation constant of the complex between target and ligand, obtained from inhibition or displacement.
